Experiments:
[1] = tested on: bone specific alkaline phosphatase; settings: Groups 2-4, i.v., 56 days stall rest; also reduced in placebo
Text: (§1) Bone metabolism is monitored using standard techniques, i.e. serum assays to determine levels of markers of bone turnover, bone resorption and bone formation and ultrasound is used to assess changes in bone density.
(§2) Materials and Methods: Sixteen healthy adult thoroughbred horses (eight mares and eight male castrates) which had previously been running at pasture for at least 4 months are used.
(§3) The horses are randomly allocated to 4 treatment groups of four horses, each containing two mares and two male castrates. Serum samples are collected and ultrasound measurements are taken on three occasions directly before commencement of stall rest. Assays are conducted on the serum samples to determine pre-confinement levels of C-telopeptides (C-Tx; a collagen breakdown product that is a marker of bone resorption); osteocalcin (a marker of bone turnover) and bone specific alkaline phosphatase (a marker of bone formation). Ultrasound is used to measure the speed of transmission of sound waves through the bone.
(§4) Stall rest is commenced the day of first treatment. Serum samples are taken twice weekly and ultrasound measurements are taken each 14 days for the 56 days of the study to monitor changes in bone metabolism markers and in bone density relative to pre-confinement values. At the end of the study the horses are returned to the pasture.

[2] = tested on: C-telopeptides (C-Tx); settings: alendronate injection, horses confined to stall rest for 56 days, versus saline
Text: as §1, §2, §3, §4

NCCCC(O)(P(=O)(O)O)P(=O)(O)O [alendronate, 4-amino-1-hydroxybutylidene-1,1-bisphosphonic acid monosodium trihydrate]
marker for bone formation (bone specific alkaline phosphatase) [1]: reduced | bone resorption (result in words) [2]: suppressed bone resorption

— US20040038944A1, “Compositions and methods of preventing or reducing the risk or incidence of skeletal injuries in horses” (Merck & Co., Inc., priority 2000, published 2004)
